These results are taken from DBAASP.

In brackets after ≈: the same amount, converted by molar mass.

Some test systems named below: Escherichia coli MG1655; Acinetobacter baumannii; Klebsiella pneumoniae; Pseudomonas aeruginosa; Fusarium oxysporum; Fusarium solani; Ramulariopsis gossypii; Rhizoctonia solani; Trichoderma asperellum.
Holding throughout (experiment): ≥ marks a high value that may be exact or a test limit, other limits are often not marked, values filed in µg/mL are converted to µM
For assay [1], the system named is Candida albicans NCTC 3179.
The subject of assay [2] is Escherichia coli ATCC 25922.
In assay [3] the test system is Staphylococcus aureus ATCC 25923.
The test system of assay [4] is Candida albicans ATCC 18804.
The subject of assay [5] is Staphylococcus aureus ATCC 33592.
For assay [6], the system named is Micrococcus luteus 1D00051.
Assay [7] concerns Staphylococcus aureus 1D00101.
In assay [8] the test system is Vibrio vulnificus 1H00066.
Assay [9] has as its system Acinetobacter baumannii ATCC 19606.
The subject of assay [10] is Bacillus subtilis ATCC 6051.
Assay [11] concerns Candida albicans ATCC 90028.
Assay [12] deals with Cryptococcus neoformans ATCC 208821.
Assay [13] relates to Klebsiella pneumoniae ATCC 13883.
Assay [14] concerns Klebsiella pneumoniae ATCC 700603.
For assay [15], the system named is Klebsiella pneumoniae ATCC BAA-2146.
Assay [16] deals with Pseudomonas aeruginosa ATCC 27853.
Assay [17] relates to Staphylococcus aureus ATCC 43300.
Assay [18] concerns Bacillus cereus ATCC 14579.
Assay [19] has as its system Bacillus subtilis ATCC 23857.
Assay [20] has as its system Cryptococcus neoformans ATCC 28957.
Assay [21] has as its system Fusarium oxysporum f.sp. vasinfectum.
In assay [22] the test system is Pectobacterium carotovorum.
For assay [23], the system named is Pseudomonas syringae pv. tabaci.
Assay [24] relates to Xanthomonas campestris pv. citri.
Assay [25] deals with Acinetobacter baumannii ATCC BAA-1605.
The test system of assay [26] is Acinetobacter baumannii KCCM 40203.
In assay [27] the test system is Bacillus subtilis KCTC 3068.
Assay [28] deals with Candida parapsilosis ATCC 22019.
Assay [29] deals with Enterococcus faecalis KCCM 11814.
The test system of assay [30] is Enterococcus faecalis KCCM 29212.
For assay [31], the system named is Enterococcus faecium ATCC 51559.
Assay [32] has as its system Enterococcus faecium KCCM 12118.
In assay [33] the test system is Escherichia coli KCTC 1682.
The test system of assay [34] is Malassezia furfur KCTC 7744.
For assay [35], the system named is Pseudomonas aeruginosa CCARM 2180.
Assay [36] relates to Salmonella typhimurium KCTC 1926.
Assay [37] concerns Staphylococcus epidermidis KCTC 1917.
In assay [38] the test system is Trichosporon beigelii KCTC 7707.

On to `CC[C@H](C)[C@H](NC(=O)[C@H](C)NC(=O)[C@H](CC(=O)O)NC(=O)[C@H](CC(C)C)NC(=O)[C@H](CC(N)=O)NC(=O)[C@H](C)N)C(=O)N[C@H](C(=O)N[C@@H](CCCCN)C(=O)N[C@H](C(=O)N[C@@H](CCC(N)=O)C(=O)N[C@@H](C)C(=O)N[C@@H](Cc1c[nH]c2ccccc12)C(=O)N[C@@H](C)C(=O)N[C@@H](CCCN=C(N)N)C(=O)N[C@@H](CCSC)C(=O)N[C@@H](Cc1c[nH]c2ccccc12)C(=O)N[C@@H](C)C(=O)N[C@@H](C)C(=O)N[C@@H](CCCN=C(N)N)C(=O)N[C@@H](CCCN=C(N)N)C(=O)N[C@@H](CCC(N)=O)C(=O)N[C@@H](Cc1ccc(O)cc1)C(=O)N[C@@H](CC(C)C)C(=O)O)[C@@H](C)CC)[C@@H](C)CC` [ANLDAIIKIQAWARMWAARRQYL], for which the MIC was ≥ 90.6 µM in assay [1], 2.03 µM (≈ 5.6 µg/mL) in [2] and 11.2 µM (≈ 31 µg/mL) in assay [3].
Regarding `CC[C@H](C)[C@H](NC(C)=O)C(=O)N[C@@H](CCCCN)C(=O)N[C@@H](CCCN=C(N)N)C(=O)N[C@@H](CC(C)C)C(=O)N[C@@H](CC(N)=O)C(=O)N[C@@H](CO)C(=O)N[C@@H](Cc1c[nH]c2ccccc12)C(=O)N[C@@H](CC(C)C)C(=O)N[C@@H](CCCN=C(N)N)C(=O)N[C@@H](CCCCN)C(N)=O` [IKRLNSWLRK], the MIC in assay [4] is ≥ 128 µM; with Escherichia coli MG1655, ≥ 64 µM; in assay [5] it was ≥ 128 µM.
Consider `CC[C@H](C)[C@H](NC(=O)[C@H](CCCN=C(N)N)NC(=O)[C@@H](NC(=O)[C@H](CCSC)NC(=O)[C@@H]1CCCN1C(=O)CNC(=O)[C@H](Cc1cnc[nH]1)NC(=O)[C@@H](NC(=O)[C@H](CCCCN)NC(=O)[C@H](CCCN=C(N)N)NC(=O)[C@H](CCCN=C(N)N)NC(=O)[C@H](CCCN=C(N)N)NC(=O)[C@H](CS)NC(=O)[C@@H](N)CCCCN)C(C)C)[C@@H](C)CC)C(=O)N[C@@H](CCCN=C(N)N)C(=O)N[C@@H](CCCCN)C(=O)N[C@@H](CCCCN)C(=O)O` [KCRRRKVHGPMIRIRKK], for which the results for the MIC in assay [6], in assay [7] and in [8] were 9 µM (≈ 19.5 µg/mL), 4 µM (≈ 8.65 µg/mL) and ≥ 80 µM, respectively.
`CC[C@H](C)[C@@H]1NC(=O)CNC(=O)[C@H](CCCN=C(N)N)NC(=O)CNC(=O)[C@@H]2CSSC[C@H](NC1=O)C(=O)N[C@@H](Cc1ccc(O)cc1)C(=O)N[C@@H](CCCN=C(N)N)C(=O)N[C@@H](CCCN=C(N)N)C(=O)N[C@H](C(=O)N[C@@H](CCCN=C(N)N)C(=O)O)CSSC[C@H](NC(=O)[C@H](Cc1c[nH]c3ccccc13)NC(=O)[C@@H](N)CCCCN)C(=O)N[C@@H](Cc1ccccc1)C(=O)N[C@@H](CCCN=C(N)N)C(=O)N[C@@H](C(C)C)C(=O)N2` [KWCFRVCGRGICYRRCR]: the MIC in [9] came to 0.462 µM (≈ 0.998 µg/mL); with Acinetobacter baumannii, 0.925 µM (≈ 2 µg/mL); in assay [10] it was 0.231 µM (≈ 0.499 µg/mL); in assay [11], 7.4 µM (≈ 16 µg/mL); in [12], 1.85 µM (≈ 3.99 µg/mL); in assay [2], 0.231 µM (≈ 0.499 µg/mL). For the same compound, the MIC in assay [13] is 0.925 µM (≈ 2 µg/mL); in [14], 3.7 µM (≈ 7.99 µg/mL); in assay [15] it was 3.7 µM (≈ 7.99 µg/mL); against Klebsiella pneumoniae it was > 7.4 µM; in assay [16], 3.7 µM (≈ 7.99 µg/mL); against Pseudomonas aeruginosa, 7.4 µM (≈ 16 µg/mL). Besides, the MIC in [17] stood at 7.4 µM (≈ 16 µg/mL).
Turning to `CC(C)C[C@H](NC(=O)[C@H](C)NC(=O)[C@H](C)NC(=O)[C@@H](NC(=O)[C@H](CC(C)C)NC(=O)[C@H](CCCCN)NC(=O)[C@@H](NC(=O)[C@H](CC(C)C)NC(=O)[C@H](CCCN=C(N)N)NC(=O)[C@H](Cc1cnc[nH]1)NC(=O)[C@@H](N)CC(C)C)C(C)C)C(C)C)C(=O)N[C@@H](CC(C)C)C(=O)N[C@@H](CCCN=C(N)N)C(=O)NCC(=O)N[C@@H](Cc1ccc(O)cc1)C(=O)N[C@@H](C)C(=O)N[C@@H](CO)C(=O)N[C@@H](CCCCN)C(=O)N[C@H](C(=O)N[C@@H](CC(=O)O)C(=O)N[C@H](C(=O)N[C@@H](Cc1cnc[nH]1)C(N)=O)[C@@H](C)O)C(C)C` [LHRLVKLVAALLRGYASKVDTH], the MIC in assay [18] came to 6.67 µM (≈ 16.4 µg/mL); in assay [19], 2 µM (≈ 4.92 µg/mL); in assay [11] it was 4 µM (≈ 9.84 µg/mL); in [20], 8 µM (≈ 19.7 µg/mL); in assay [2] it was 2 µM (≈ 4.92 µg/mL); in [21], 2 µM (≈ 4.92 µg/mL). Also, the MIC in the assay on Fusarium oxysporum was ≥ 32 µM; with Fusarium solani, ≥ 32 µM; in [22] it was 3.33 µM (≈ 8.19 µg/mL); in assay [16], 4 µM (≈ 9.84 µg/mL); in assay [23] it was 4 µM (≈ 9.84 µg/mL); with Ramulariopsis gossypii, 4 µM (≈ 9.84 µg/mL). In addition, the MIC in the assay with Rhizoctonia solani stood at 16 µM (≈ 39.4 µg/mL); in assay [3], 2 µM (≈ 4.92 µg/mL); with Trichoderma asperellum, 16 µM (≈ 39.4 µg/mL); in assay [24] it was 4 µM (≈ 9.84 µg/mL).
For the compound `CC[C@H](C)[C@H](NC(=O)[C@H](Cc1c[nH]c2ccccc12)NC(=O)[C@H](CC(C)C)NC(=O)[C@@H](N)CC(C)C)C(=O)N[C@@H](C)C(=O)N[C@@H](CC(C)C)C(=O)N[C@@H](CCCN=C(N)N)C(=O)N[C@@H](CCCCN)C(=O)N[C@@H](CCCCN)C(N)=O` [LLWIALRKK], the MIC in [25] is ≥ 80 µM; in assay [26], ≥ 80 µM; in assay [27] it was 3.51 µM (≈ 4 µg/mL); in [11] it was 0.614 µM (≈ 0.699 µg/mL); in assay [28], 0.614 µM (≈ 0.699 µg/mL); in assay [29], ≥ 80 µM. The minimal inhibitory concentration (MIC) in [30] was 7.01 µM (≈ 7.99 µg/mL); in assay [31], 1.75 µM (≈ 2 µg/mL); in assay [32], 7.01 µM (≈ 7.99 µg/mL); in [33], 3.51 µM (≈ 4 µg/mL); in assay [34], 0.614 µM (≈ 0.699 µg/mL); in assay [35] it was ≥ 80 µM. The minimum inhibitory concentration (MIC) in assay [36] is 3.51 µM (≈ 4 µg/mL); in assay [37], 3.51 µM (≈ 4 µg/mL); in [38], 1.32 µM (≈ 1.5 µg/mL).
